This is an account of results in ChEMBL document CHEMBL3244371, “An approach to peripheral vasodilator-beta-adrenergic blocking agents” (J Med Chem, 1977).

The subject of data set [1] is Rattus norvegicus. The data set is described as follows: Antihypertensive activity in spontaneously hypertensive rat assessed as maximum fall in mean arterial pressure at 1.25 mg/kg, po. Type of data set: functional, Artery.
For data set [2], the system named is Rattus norvegicus. The data set is described as follows: Antihypertensive activity in spontaneously hypertensive rat assessed as duration of effect at 5 mg/kg, po. Type of data set: functional.
In data set [3] the test system is Canis familiaris. Description: Blockade of isoprolerenol-induced hypotension in iv dosed anesthetized trachea-cannulated mongrel dog assessed as mean arterial pressure. Type of data set: functional. Particulars: Canis lupus familiaris, Artery.
Data set [4] concerns Canis familiaris. The data set is described as follows: Peripheral vasodilating activity in anesthetized trachea-cannulated mongrel dog assessed as increase in iliac blood flow at 60 ug administered intraarterially in presence of isoproterenol. Type of data set: functional, Canis lupus familiaris, Artery.
Data set [5] has as its system Rattus norvegicus. Description: Antihypertensive activity in spontaneously hypertensive rat assessed as duration of effect at 0.312 mg/kg, po. Type of data set: functional.
The subject of data set [6] is Rattus norvegicus. Description: Antihypertensive activity in spontaneously hypertensive rat assessed as duration of effect at 1.25 mg/kg, po. Type of data set: functional.
The test system of data set [7] is Rattus norvegicus. The data set is described as follows: Antihypertensive activity in spontaneously hypertensive rat assessed as maximum fall in mean arterial pressure at 5 mg/kg, po. Type of data set: functional, Artery.
Data set [8] relates to Rattus norvegicus. Description: Antihypertensive activity in spontaneously hypertensive rat assessed as maximum fall in mean arterial pressure at 0.312 mg/kg, po. Type of data set: functional, Artery.
Data set [9] relates to Canis familiaris. Description: Blockade of isoprolerenol-induced tachycardia in iv dosed anesthetized trachea-cannulated mongrel dog assessed as heart rate. Type of data set: functional. Particulars: Canis lupus familiaris.
For data set [10], the system named is Canis familiaris. Description: Peripheral vasodilating activity in anesthetized trachea-cannulated mongrel dog assessed as increase in iliac blood flow at 800 ug administered intraarterially in presence of isoproterenol. Type of data set: functional, Canis lupus familiaris, Artery.
Data set [11] has as its system Rattus norvegicus. Description: Antihypertensive activity in spontaneously hypertensive rat assessed as maximum fall in mean arterial pressure at 2 mg/kg, po. Type of data set: functional, Artery.
Data set [12] has as its system Canis familiaris. The data set is described as follows: Toxicity in renal hypertensive dog assessed as elevation in heart rate at 4 to 16 mg/kg. The note with it: in vivo. Also on record: dose 4-16 mg/kg. Type of data set: organism-based, Canis lupus familiaris.
Data set [13] deals with Rattus norvegicus. The data set is described as follows: Antihypertensive activity in spontaneously hypertensive rat assessed as duration of effect at 1 mg/kg, po. Type of data set: functional.
Data set [14] deals with Rattus norvegicus. The data set is described as follows: Antihypertensive activity in spontaneously hypertensive rat assessed as duration of effect at 2 mg/kg, po. Type of data set: functional.
Data set [15] relates to Rattus norvegicus. The data set is described as follows: Antihypertensive activity in spontaneously hypertensive rat assessed as duration of effect at 8 mg/kg, po. Type of data set: functional.
In data set [16] the test system is Rattus norvegicus. The data set is described as follows: Antihypertensive activity in spontaneously hypertensive rat assessed as maximum fall in mean arterial pressure at 1 mg/kg, po. Type of data set: functional, Artery.
The test system of data set [17] is Rattus norvegicus. The data set is described as follows: Antihypertensive activity in spontaneously hypertensive rat assessed as maximum fall in mean arterial pressure at 8 mg/kg, po. Type of data set: functional, Artery.
Data set [18] concerns Canis familiaris. The data set is described as follows: Peripheral vasodilating activity in anesthetized trachea-cannulated mongrel dog assessed as increase in iliac blood flow at 800 ug administered intraarterially co-treated with 320 ug/kg timolol in presence of isoproterenol. Type of data set: functional, Canis lupus familiaris, Artery.
Data set [19] concerns Canis familiaris. The data set is described as follows: Peripheral vasodilating activity in anesthetized trachea-cannulated mongrel dog assessed as increase in iliac blood flow at 800 ug administered intraarterially co-treated with 800 ug/kg timolol in presence of isoproterenol. Type of data set: functional, Canis lupus familiaris, Artery.
Data set [20] relates to Canis familiaris. The data set is described as follows: Peripheral vasodilating activity in anesthetized trachea-cannulated mongrel dog assessed as increase in iliac blood flow at 1600 ug administered intraarterially in presence of isoproterenol. Type of data set: functional, Canis lupus familiaris, Artery.
For data set [21], the system named is Canis familiaris. The data set is described as follows: Peripheral vasodilating activity in anesthetized trachea-cannulated mongrel dog assessed as increase in iliac blood flow at 1600 ug administered intraarterially co-treated with 2000 ug/kg timolol in presence of isoproterenol. Type of data set: functional, Canis lupus familiaris, Artery.
For data set [22], the system named is Rattus norvegicus. Description: Antihypertensive activity in spontaneously hypertensive rat assessed as maximum fall in mean arterial pressure at 20 mg/kg, po. Type of data set: functional, Artery.
For data set [23], the system named is Rattus norvegicus. The data set is described as follows: Antihypertensive activity in spontaneously hypertensive rat assessed as maximum fall in mean arterial pressure at 20 mg/kg, ip. Type of data set: functional, Artery. The note with it: route intraperitoneal.
The test system of data set [24] is Canis familiaris. The data set is described as follows: Peripheral vasodilating activity in anesthetized trachea-cannulated mongrel dog assessed as increase in iliac blood flow at 1600 ug administered intraarterially co-treated with 800 ug/kg timolol in presence of isoproterenol. Type of data set: functional, Canis lupus familiaris, Artery.
The subject of data set [25] is Rattus norvegicus. The data set is described as follows: Antihypertensive activity in spontaneously hypertensive rat assessed as duration of effect at 20 mg/kg, ip. Type of data set: functional. Particulars: route intraperitoneal.
Data set [26] deals with Rattus norvegicus. Description: Antihypertensive activity in spontaneously hypertensive rat assessed as duration of effect at 20 mg/kg, po. Type of data set: functional.
The test system of data set [27] is Canis familiaris. Description: Peripheral vasodilating activity in anesthetized trachea-cannulated mongrel dog assessed as increase in iliac blood flow at 32 ug administered intraarterially in presence of isoproterenol. Type of data set: functional, Canis lupus familiaris, Artery.
The test system of data set [28] is Canis familiaris. The data set is described as follows: Peripheral vasodilating activity in anesthetized trachea-cannulated mongrel dog assessed as increase in iliac blood flow at 32 ug administered intraarterially co-treated with 2000 ug/kg timolol in presence of isoproterenol. Type of data set: functional, Canis lupus familiaris, Artery.
For data set [29], the system named is Canis familiaris. The data set is described as follows: Peripheral vasodilating activity in anesthetized trachea-cannulated mongrel dog assessed as increase in iliac blood flow at 16 ug administered intraarterially co-treated with 2000 ug/kg timolol in presence of isoproterenol. Type of data set: functional, Canis lupus familiaris, Artery.
The subject of data set [30] is Canis familiaris. Description: Peripheral vasodilating activity in anesthetized trachea-cannulated mongrel dog assessed as increase in iliac blood flow at 8 ug administered intraarterially co-treated with 2000 ug/kg timolol in presence of isoproterenol. Type of data set: functional, Canis lupus familiaris, Artery.
In data set [31] the test system is Canis familiaris. The data set is described as follows: Peripheral vasodilating activity in anesthetized trachea-cannulated mongrel dog assessed as increase in iliac blood flow at 8 ug administered intraarterially in presence of isoproterenol. Type of data set: functional, Canis lupus familiaris, Artery.
In data set [32] the test system is Canis familiaris. Description: Peripheral vasodilating activity in anesthetized trachea-cannulated mongrel dog assessed as increase in iliac blood flow at 16 ug administered intraarterially in presence of isoproterenol. Type of data set: functional, Canis lupus familiaris, Artery.

By ED50 is commonly meant the midpoint of the dose-response relation. For the compound `CC(C)(C)NC[C@H](O)COc1ccc(-c2nc(C(F)(F)F)c[nH]2)cc1`, the Activity in the data set with Rattus norvegicus [1] was determined as 40 mmHg; in the data set on Canis familiaris [4], 5 mL/min; in the data set with Rattus norvegicus [7] it was 56 mmHg; in the data set with Rattus norvegicus [8], 24 mmHg. The Time in the data set on Rattus norvegicus [2] is greater than 24 h; in the data set on Rattus norvegicus [5], 12 h; in the data set on Rattus norvegicus [6], 18 h. Also, the ED50 with Canis familiaris [3] came to 0.038 mg/kg; in the data set on Canis familiaris [9] it was 0.0076 mg/kg.
Turning to `FC(F)(F)c1cnc(-c2cccnc2)[nH]1`, the Activity in the data set on Canis familiaris [10] was determined as 93 mL/min; in the data set with Rattus norvegicus [11] it was 39 mmHg; in the data set on Canis familiaris [12], 82 bpm; in the data set on Rattus norvegicus [16], 21 mmHg; with Rattus norvegicus [17] it was 48 mmHg; in the data set on Canis familiaris [18] it was 99 mL/min. For the same compound, the Activity in the data set with Canis familiaris [19] worked out at 76 mL/min. The Time with Rattus norvegicus [13] was 2 h; in the data set with Rattus norvegicus [14] it was 6 h; in the data set with Rattus norvegicus [15], greater than 6 h.
Regarding `CC(C)(C)NC[C@H](O)COc1ncccc1-c1ncc(C(F)(F)F)[nH]1`, the ED50 with Canis familiaris [3] is 0.125 mg/kg; in the data set on Canis familiaris [9] it was 0.25 mg/kg. Moreover, the Activity is 4 mL/min in the data set on Canis familiaris [20], 9 mL/min with Canis familiaris [21], 6 mmHg with Rattus norvegicus [22] and 8 mmHg in the data set with Rattus norvegicus [23].
Take `CC(C)(C)NC[C@H](O)COc1ccc(-c2ncc(C(F)(F)F)[nH]2)cn1`: the ED50 with Canis familiaris [3] stood at 0.058 mg/kg; in the data set on Canis familiaris [9], 0.0025 mg/kg. The Activity was found to be 103 mL/min in the data set on Canis familiaris [20], 38 mL/min with Canis familiaris [24], 0 mmHg in the data set with Rattus norvegicus [22] and 40 mmHg with Rattus norvegicus [23]. In addition, the Time in the data set on Rattus norvegicus [25] is greater than 7 h.
`CC(C)(C)NC[C@H](O)COc1ccccc1-c1ncc(C(F)(F)F)[nH]1`: the ED50 in the data set with Canis familiaris [3] was 0.1 mg/kg; in the data set with Canis familiaris [9] it was 0.3 mg/kg. Also, the Activity in the data set on Canis familiaris [20] was 35 mL/min; in the data set with Canis familiaris [21], 33 mL/min; in the data set with Rattus norvegicus [22], 0 mmHg; in the data set on Rattus norvegicus [23], 32 mmHg. Further, in the data set on Rattus norvegicus [25], the Time is less than 7 h.
For `CC(C)(C)NC[C@H](O)COc1cccc(-c2ncc(C(F)(F)F)[nH]2)c1`, the ED50 was 0.086 mg/kg with Canis familiaris [3] and greater than 1 mg/kg with Canis familiaris [9]. Besides, in the data set with Rattus norvegicus [25], the Time is greater than 7 h. Further, the Activity in the data set on Rattus norvegicus [22] was 5 mmHg; with Rattus norvegicus [23] it was 40 mmHg.
For `CC(C)(C)NC[C@@H](O)COc1ccc(-c2ncc(C(F)(F)F)[nH]2)cc1`, the values for the Activity in the data set with Rattus norvegicus [1], in the data set on Rattus norvegicus [22] and in the data set on Rattus norvegicus [7] were 16 mmHg, 49 mmHg and 22 mmHg, respectively. For the same compound, the Time in the data set with Rattus norvegicus [2] came out at 6 h; in the data set with Rattus norvegicus [6], 2 h; in the data set with Rattus norvegicus [26], 8 h. Moreover, the ED50 in the data set on Canis familiaris [3] is greater than 1 mg/kg; in the data set on Canis familiaris [9], 0.102 mg/kg.
For the compound `CC(C)(C)NCC(O)COc1ccc(-c2nc(C(F)(F)F)c[nH]2)cc1` (racemic), the Activity in the data set on Canis familiaris [27] turned out to be 63 mL/min; in the data set on Rattus norvegicus [1], 36 mmHg; in the data set with Canis familiaris [20] it was 9 mL/min; in the data set on Canis familiaris [21] it was 15 mL/min; with Canis familiaris [28], 17 mL/min; in the data set on Canis familiaris [29], 17 mL/min. For the same compound, the Activity is 10 mL/min in the data set with Canis familiaris [30]; 52 mL/min in the data set with Canis familiaris [31]; 58 mL/min in the data set with Canis familiaris [32]; 49 mmHg in the data set with Rattus norvegicus [7]; 21 mmHg in the data set on Rattus norvegicus [8]. Moreover, the Time in the data set with Rattus norvegicus [2] turned out to be 18 h; with Rattus norvegicus [5] it was 7 h; in the data set on Rattus norvegicus [6], 18 h. Moreover, the ED50 came out at 0.036 mg/kg in the data set on Canis familiaris [3] and 0.009 mg/kg with Canis familiaris [9].
`NNc1nncc2ccccc12` [HYDRALAZINE]: the Activity was found to be 66 mL/min in the data set on Canis familiaris [20], 40 mmHg in the data set with Rattus norvegicus [11] and 30 mmHg with Rattus norvegicus [16]. Besides, the figures for the Time with Rattus norvegicus [13] and in the data set with Rattus norvegicus [14] were 6 h and greater than 7 h, respectively.
